Like-named read-outs stand apart in the source and are kept apart here.
Legend:
[1] = biological target: Factor XIa (Homo sapiens, UniProt P03951); experiment: Factor XIa inhibition assay (FLINT) utilizing a fluorophore-quencher pair peptide substrate 5Fam-[…]-K5Tamra; format: biochemical; conditions: kinetic (KIN) reads, read-out: FXIa KIN Inh IC50
Text: Biological Example 1: Factor XIa Inhibition Assay Utilizing a Fluorophore-Quencher Pair Peptide Substrate A fluorescence intensity (FLINT) based assay was used to monitor inhibition of Factor XIa. The peptide substrate, 5Fam-[…]-K5Tamra (purchased from New England Peptide) was chosen based on the FXI sequence. Conversion of zymogen FXI to its activated form, FXIa, occurs by proteolytic cleavage by […] at two sites, Arg146 and Arg180. The custom peptide used in this assay was based on the Arg146 cleavage site of FXI. The peptide substrate was designed with a fluorophore-quencher pair, where the fluorescence is quenched until FXIa cleaves the 8-mer peptide after the Arg residue.
The Factor XIa FLINT assay was used with the following 5Fam-[…]-K5Tamra assay buffer: 50 mM Tris, pH 7.5, 100 mM NaCl, 5 mM CaCl2, 0.1 mg/mL BSA, 0.03% CHAPS. Assay buffer was prepared by mixing all ingredients fresh. 5Fam-[…]-K5Tamra peptide substrate was first prepared at 10 mM in 100% DMSO, then diluted to 3 mM in 100% DMSO. Assay buffer was then added directly to the 3 mM stock of substrate to prepare the 30 μM 2× working concentration (15 μM final concentration). The 2× Factor XIa stock solution was prepared by diluting 6.562 μM stock in 1× assay buffer for a […].
Test compound(s) were run in an 11-point, 3-fold serial dilution with a final top compound concentration of 100 nM. Final DMSO in assay was 2%. FXIa was preincubated with compound for 30-minutes and then substrate was added to initiate the reaction. The assay was run with kinetic (KIN) reads at 5 min intervals over 30 minutes. […] More specifically, the assay was run as follows: • 100 nL of 0.01 mM test compound was dispensed into black 384-well non-binding Greiner BioOne 784900 plate for 0.1 μM final concentration; • 5 μL of 1× assay buffer was dispensed to column 24 (low control) and 5 μL 2× Factor XIa solution was dispensed to columns 1-23 (column 23 high control); • the plate was centrifuged with a “cover” plate at 500 rpm for 1 min • the plate was pre-incubated for 30 minutes at room temperature with plate covered; • 5 μL of 2×5Fam-[…]-K5Tamra peptide substrate was dispensed into the entire plate, columns 1-24; • the plate was centrifuged with a “cover” plate at 500 rpm for 1 min; • the plate was read monitoring fluorescence intensity on the BMG PHERAStar at room temperature, using fluorescence module 485 nm/520 nm.
(§1) Percent inhibition (IC50) curves were generated per compound tested, and data was analyzed using a 4-parameter logistic fit using GeneData Screener. The relative fluorescence unit (RFU) values were normalized to percent inhibition using the following equation:
% inhibition=((HC−LC)−(compound−LC)/(HC−LC))*100 where LC−low control=mean signal of no Factor XIa or 100% inhibition of Factor XIa; HC−high control=mean signal of Factor XIa+5Fam-[…]-K5Tamra peptide substrate with DMSO only.
(§2) An 11-point dose response curve for the test compound(s) was generated using GENDATA to determine IC50 value based on the following equation:
Y=Bottom+(Top−Bottom)/(1+10^((log IC50−X)*HillSlope)) where Y is the % inhibition in the presence of X inhibitor concentration, Top=high control=mean signal of Factor XIa+5Fam-[…]-K5Tamra peptide substrate with DMSO only; Bottom=low control−mean signal of no Factor XIa or 100% inhibition of Factor XIa; HillSlope−Hill coefficient; and IC50=concentration of compound with 50% inhibition in relation to top/high control.

[2] = biological target: human plasma kallikrein (Homo sapiens, UniProt P03952); experiment: Kallikrein inhibition assay (FLINT) utilizing a quenched AMC peptide substrate Z-Gly-Pro-Arg-AMC; format: biochemical; conditions: kinetic (KIN) reads, read-out: Kallikrein KIN Inh IC50
Text: Biological Example 2: Kallikrein Inhibition Assay Utilizing a Quenched AMC Peptide Substrate A fluorescence intensity (FLINT) based assay was used to monitor inhibition of human plasma kallikrein. The peptide substrate, Z-Gly-Pro-Arg-AMC (Purchased from Bachem; Catalog #I-1150) was chosen based on its relatively low KM for kallikrein which enables running the assay at lower substrate concentrations to control background fluorescence.
The Kallikrein FLINT assay was used with the following Z-Gly-Pro-Arg-AMC assay buffer: 50 mM Tris, pH 7.5, 100 mM NaCl, 5 mM CaCl2, 0.1 mg/mL BSA, 0.03% CHAPS. Assay buffer was prepared by mixing all ingredients fresh. 2× Z-Gly-Pro-Arg-AMC peptide substrate was prepared by diluting 10 mM stock into 1× assay buffer for a 100 μM working concentration (50 μM final concentration). The 2× kallikrein stock solution was prepared by diluting 14.76 μM stock in 1× assay buffer for a 4 nM working stock solution (2 nM final concentration).
Test compound(s) were run in an 11-point, 3-fold serial dilution with a final top compound concentration of 1 μM. Final DMSO in assay was 2%. Plasma kallikrein was pre-incubated for 30-minute with compound and then 50 μM substrate was added to initiate the reaction. The assay was run with kinetic (KIN) reads at 5 min intervals over 30 minutes. The time course was linear using 2 nM kallikrein greater than 30 minutes. More specifically, the assay was run as follows: • 100 nL of 0.1 mM test compound was dispensed into black 384-well non-binding Greiner BioOne 784900 plate for 1 μM final concentration; • 5 μL of 1× assay buffer was dispensed to columns 24 (low control) and 5 μL 2× human kallikrein enzyme solution was dispensed to columns 1-23 (column 23 high control); • the plate was centrifuged with a “cover” plate at 500 rpm for 1 min • the plate was pre-incubated for 30 minutes at room temperature with plate covered; • 5 μL of 2× Z-Gly-Pro-Arg-AMC peptide substrate was dispensed into the entire plate, columns 1-24; • the plate was centrifuged with a “cover” plate at 500 rpm for 1 min; • the plate was read monitoring fluorescence intensity on the BMG PHERAStar at room temperature, using fluorescence module 340 nm/440 nm.
as §1
% inhibition=((HC−LC)−(compound−LC)/(HC−LC))*100 where LC—low control=mean signal of […] or 100% inhibition of human kallikrein enzyme; HC—high control=mean signal of […]+Z-Gly-Pro-Arg-AMC peptide substrate with DMSO only.
as §2
Y=Bottom+(Top−Bottom)/(1+10^((log IC50−X)*HillSlope)) where Y is the % inhibition in the presence of X inhibitor concentration, Top=high control=mean signal of human kallikrein enzyme+Z-Gly-Pro-Arg-AMC peptide substrate with DMSO only; Bottom=low control−mean signal of no human kallikrein enzyme or 100% inhibition of human kallikrein enzyme; HillSlope−Hill coefficient; and IC50=concentration of compound with 50% inhibition in relation to top/high control.

Sequence of Factor XIa (P03951 388-625 limits assumed): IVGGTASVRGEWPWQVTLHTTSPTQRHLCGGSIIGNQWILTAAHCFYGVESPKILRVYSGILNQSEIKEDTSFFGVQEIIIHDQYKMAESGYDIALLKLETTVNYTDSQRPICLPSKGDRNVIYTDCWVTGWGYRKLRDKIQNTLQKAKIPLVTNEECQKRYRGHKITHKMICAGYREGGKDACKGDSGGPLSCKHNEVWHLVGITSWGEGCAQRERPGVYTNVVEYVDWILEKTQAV
Sequence of Factor XIa (P03951 19-387 partner limits assumed): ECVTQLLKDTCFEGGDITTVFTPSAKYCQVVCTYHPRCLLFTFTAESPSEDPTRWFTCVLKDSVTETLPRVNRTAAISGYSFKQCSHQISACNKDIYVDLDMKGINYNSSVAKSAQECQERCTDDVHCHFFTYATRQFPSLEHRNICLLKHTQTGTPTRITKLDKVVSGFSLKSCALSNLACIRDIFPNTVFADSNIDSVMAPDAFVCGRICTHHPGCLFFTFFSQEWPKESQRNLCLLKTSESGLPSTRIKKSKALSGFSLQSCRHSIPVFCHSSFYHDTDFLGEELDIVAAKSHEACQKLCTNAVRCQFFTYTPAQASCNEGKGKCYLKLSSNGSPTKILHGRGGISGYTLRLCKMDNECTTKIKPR
Sequence of human plasma kallikrein (P03952 391-638 limits assumed): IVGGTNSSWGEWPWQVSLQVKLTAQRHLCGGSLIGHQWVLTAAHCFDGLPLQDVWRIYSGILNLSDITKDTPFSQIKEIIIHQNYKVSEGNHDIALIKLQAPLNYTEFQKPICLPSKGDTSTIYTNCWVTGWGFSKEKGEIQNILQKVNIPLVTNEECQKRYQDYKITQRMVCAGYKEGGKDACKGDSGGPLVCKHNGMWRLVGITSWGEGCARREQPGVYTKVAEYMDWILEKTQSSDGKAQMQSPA
Sequence of human plasma kallikrein (P03952 20-390 partner limits assumed): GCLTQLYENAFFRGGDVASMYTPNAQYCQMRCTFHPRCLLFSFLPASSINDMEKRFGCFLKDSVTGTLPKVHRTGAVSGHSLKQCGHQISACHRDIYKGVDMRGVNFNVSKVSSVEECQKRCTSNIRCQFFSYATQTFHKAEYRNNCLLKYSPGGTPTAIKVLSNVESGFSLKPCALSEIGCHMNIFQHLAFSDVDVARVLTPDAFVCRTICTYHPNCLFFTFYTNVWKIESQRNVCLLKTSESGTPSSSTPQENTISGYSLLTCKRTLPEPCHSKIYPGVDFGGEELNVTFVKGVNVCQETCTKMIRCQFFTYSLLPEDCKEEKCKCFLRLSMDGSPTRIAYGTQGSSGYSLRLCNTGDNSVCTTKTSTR

Row | IC50 ([1]; values in nM) [nM] | IC50 ([2]; unit μM) [µM] | IC50 ([1]; unit μM) [nM] | IC50 ([2]; values in nM) [µM] | Compound
1 | 311 | 6.4 |  |  | C[C@H]1C[C@@H](c2ncc(-c3cnnn3C)[nH]2)n2c1cc(-c1c(-n3cnnn3)ccc(Cl)c1F)cc2=O [Example 28, (1S,3S)-7-(3-Chloro-2-fluoro-6-(1H-tetrazol-1-yl)phenyl)-1-methyl-3-(5-(1-methyl-1H-1,2,3-triazol-5-yl)-1H-Imidazol-2-yl)-2,3-dihydroindolizin-5(1H)-one]
2 |  | > 10 | > 10000 |  | C[C@@H]1C[C@H](c2ncc(-c3ccnn3C)[nH]2)n2c1nc(-c1c(-n3cnnn3)ccc(Cl)c1F)cc2=O (stereo in doubt) [Example 143, (6R*,8R*)-2-(3-Chloro-2-fluoro-6-(1H-tetrazol-1-yl)phenyl)-8-methyl-6-(5-(1-methyl-1H-pyrazol-5-yl)-1H-imidazol-2-yl)-7,8-dihydropyrrolo[1,2-a]pyrimidin-4(6H)-one]
3 | 11 |  |  | 0.047 | C[C@@H]1C[C@@H](c2ncc(-c3ccnc(CO)c3F)[nH]2)n2c1cc(-c1c(-n3cnnn3)ccc(Cl)c1F)cc2=O (relative stereo) [Example 1, (1R*,3S*)-7-(3-Chloro-2-fluoro-6-(1H-tetrazol-1-yl)phenyl)-3-(5-(3-fluoro-2-(hydroxymethyl)pyridin-4-yl)-1H-imidazol-2-yl)-1-methyl-2,3-dihydroindolizin-5(1H)-one]
4 | 4.4 |  |  | ~0.236 | CC1C[C@@H](c2nc(-c3cnc(N)cn3)c[nH]2)n2c1nc(-c1c(-n3cc(C(F)(F)F)nn3)ccc(Cl)c1F)cc2=O (stereo partly drawn) [Example 80, (6S)-6-(4-(5-aminopyrazin-2-yl)-1H-imidazol-2-yl)-2-(3-chloro-2-fluoro-6-(4-(trifluoromethyl)-1H-1,2,3-triazol-1-yl)phenyl)-8-methyl-7,8-dihydropyrrolo[1,2-a]pyrimidin-4(6H)-one]
5 | 675 | 4.8 |  |  | C[C@H]1C[C@H](c2ncc(-c3ccc(NC(=O)C4CC4)nc3)[nH]2)n2c1nc(-c1c(-n3cnnn3)ccc(Cl)c1F)cc2=O (stereo in doubt) [Example 121, N-(5-(2-((6*R,8*S)-2-(3-Chloro-2-fluoro-6-(1H-tetrazol-1-yl)phenyl)-8-methyl-4-oxo-4,6,7,8-tetrahydropyrrolo[1,2-a]pyrimidin-6-yl)-1H-imidazol-5-yl)pyridin-2-yl)cyclopropanecarboxamide]
6 | > 100 | > 1 |  |  | Cc1nc(N)cnc1-c1cnc([C@H]2CC(C)c3nc(-c4c(-n5cnnn5)ccc(Cl)c4F)cc(=O)n32)[nH]1 (stereo partly drawn) [Example 96, (6R)-6-(5-(5-Amino-3-methylpyrazin-2-yl)-1H-imidazol-2-yl)-2-(3-chloro-2-fluoro-6-(1H-tetrazol-1-yl)phenyl)-8-methyl-7,8-dihydropyrrolo[1,2-a]pyrimidin-4(6H)-one]
7 | 0.8 |  |  | 0.0121 | Nc1ccc(-c2[nH]c(C3CC4(CC4)c4nc(-c5c(-n6cnnn6)ccc(Cl)c5F)cc(=O)n43)nc2F)c(F)n1 (stereo in doubt) [Example 76, (S)-6′-(5-(6-amino-2-fluoropyridin-3-yl)-4-fluoro-1H-imidazol-2-yl)-2′-(3-chloro-2-fluoro-6-(1H-tetrazol-1-yl)phenyl)-6′,7′-dihydro-4′H-spiro[cyclopropane-1,8′-pyrrolo[1,2-a]pyrimidin]-4′-one]
8 |  | > 10 | > 10000 |  | C[C@@H]1C[C@@H](c2ncc(-c3ccnc(C(F)(F)F)c3)[nH]2)n2c1nc(-c1c(-n3cnnn3)ccc(Cl)c1F)cc2=O (relative stereo) [Example 147, (6S*,8R*)-2-(3-Chloro-2-fluoro-6-(1H-tetrazol-1-yl)phenyl)-8-methyl-6-(5-(2-(trifluoromethyl)pyridin-4-yl)-1H-imidazol-2-yl)-7,8-dihydropyrrolo[1,2-a]pyrimidin-4(6H)-one]
9 | 104 | 7.2 |  |  | C[C@@H]1C[C@@H](c2ncc(-c3ccc(N)nc3F)[nH]2)n2c1nc(-c1c(-n3cnnn3)ccc(Cl)c1F)cc2=O (relative stereo) [Example 137, (6S*,8R*)-6-(5-(6-Amino-2-fluoropyridin-3-yl)-1H-imidazol-2-yl)-2-(3-chloro-2-fluoro-6-(1H-tetrazol-1-yl)phenyl)-8-methyl-7,8-dihydropyrrolo[1,2-a]pyrimidin-4(6H)-one]
10 | 0.9 |  |  | 0.0259 | C[C@H]1C[C@@H](c2ncc(-c3ccc(N)nc3F)[nH]2)n2c1nc(-c1c(-n3cnnn3)ccc(Cl)c1F)cc2=O (stereo in doubt) [Example 150, (6S*,8S*)-6-(5-(6-Amino-2-fluoropyridin-3-yl)-1H-imidazol-2-yl)-2-(3-chloro-2-fluoro-6-(1H-tetrazol-1-yl)phenyl)-8-methyl-7,8-dihydropyrrolo[1,2-a]pyrimidin-4(6H)-one]
11 | 2.6 |  |  | 0.0145 | C[C@H]1C[C@@H](c2ncc(-c3ccnc(N)c3F)[nH]2)n2c1nc(-c1c(-n3cnnn3)ccc(Cl)c1F)cc2=O (relative stereo) [Example 88, (6*S,8*S)-6-(5-(2-Amino-3-fluoropyridin-4-yl)-1H-imidazol-2-yl)-2-(3-chloro-2-fluoro-6-(1H-tetrazol-1-yl)phenyl)-8-methyl-7,8-dihydropyrrolo[1,2-a]pyrimidin-4(6H)-one]

Source: patent US20230097157A1, “Bicyclic Pyridin-2-one and pyrimidin-4-one Derivatives Useful As a Factor XIa Inhibitors” (Janssen Pharmaceutica NV, priority 2021, published 2023)
